Results on one compound are retold here after patent publication US8236784B2, “Composition comprising threitol phosphate and salts thereof” (Sunny Biodiscovery, Inc., priority 2007, dated 2012).

This test relates to adult human epidermal keratinocytes (aHEK). The experiment in a line: Proliferation of adult human epidermal keratinocytes (aHEK). The format is cell-based. The note with it: 100 ug/ml; vs water (0 μg/ml). An excerpt:
Example 3(e): FIG. 6 depicts the effect of threitol-1 diphosphate on the proliferation of adult human epidermal keratinocytes (aHEK).

Structures are written as SMILES.

Turning to `O=P(O)(O)OP(=O)(O)OC[C@@H](O)[C@H](O)CO` [DP sSBD4, threitol-1-diphosphate], the “stimulation of human adult epidermal keratinocyte proliferation” value was 17%.
